Measured values reported in BindingDB's records for doi:10.1016/j.ejmech.2010.09.016 (Democritus University of Thrace, 2010).

Molecular target: Seed linoleate 13S-lipoxygenase-1 (Glycine max) (UniProt P08170)
Assay: Inhibition of soybean lipoxygenase at by UV spectrophotometry

Sequence of Seed linoleate 13S-lipoxygenase-1 (Glycine max) (P08170 whole entry, looked up): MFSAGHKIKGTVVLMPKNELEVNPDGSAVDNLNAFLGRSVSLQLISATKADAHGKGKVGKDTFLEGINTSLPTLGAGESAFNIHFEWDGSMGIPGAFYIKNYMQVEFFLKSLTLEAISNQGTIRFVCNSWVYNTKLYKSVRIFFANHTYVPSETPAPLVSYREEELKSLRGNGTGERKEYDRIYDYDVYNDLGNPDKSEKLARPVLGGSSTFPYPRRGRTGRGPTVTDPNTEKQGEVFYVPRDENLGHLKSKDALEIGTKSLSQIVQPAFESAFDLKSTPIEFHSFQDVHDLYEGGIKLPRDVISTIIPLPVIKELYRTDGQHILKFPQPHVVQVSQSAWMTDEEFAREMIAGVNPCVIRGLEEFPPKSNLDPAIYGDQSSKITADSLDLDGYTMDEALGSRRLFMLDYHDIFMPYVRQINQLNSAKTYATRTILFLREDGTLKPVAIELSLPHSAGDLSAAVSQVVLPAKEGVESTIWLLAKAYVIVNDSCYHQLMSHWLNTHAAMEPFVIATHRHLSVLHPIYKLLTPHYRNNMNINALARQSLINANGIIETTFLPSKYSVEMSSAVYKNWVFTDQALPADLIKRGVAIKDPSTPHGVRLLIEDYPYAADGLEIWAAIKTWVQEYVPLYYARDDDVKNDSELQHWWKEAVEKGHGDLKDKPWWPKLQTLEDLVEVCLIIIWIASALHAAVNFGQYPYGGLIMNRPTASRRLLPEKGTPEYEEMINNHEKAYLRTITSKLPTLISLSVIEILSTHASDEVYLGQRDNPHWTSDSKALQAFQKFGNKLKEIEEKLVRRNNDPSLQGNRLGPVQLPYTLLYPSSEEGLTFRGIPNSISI

| IC50 [µM] | Compound |
| --- | --- |
| 50 | CC(=O)N(c1nc(-c2ccc([N+](=O)[O-])cc2)no1)C1CCCCC1 [N-Cyclohexyl-N-[3-(4-nitrophenyl)-1,2,4-oxadiazol-5-yl]acetamide] |
| 58.5 | CC(=O)N(c1nc(-c2cccc([N+](=O)[O-])c2)no1)C(C)C [N-Isopropyl-N-[3-(3-nitrophenyl)-1,2,4-oxadiazol-5-yl]acetamide] |
| 100 | CC(=O)N(c1nc(Cc2ccc(Cl)cc2)no1)C1CCCCC1 [N-[3-(4-Chlorobenzyl)-1,2,4-oxadiazol-5-yl]-N-cyclohexylacetamide] |

Second part, the compound before the results:

| Compound | IC50 [µM] |
| --- | --- |
| Clc1ccc(Cc2noc(NC3CCCCC3)n2)cc1 [3-(4-Chlorobenzyl)-N-cyclohexyl-1,2,4-oxadiazol-5-amine] | 25 |
| CC(C)Nc1nc(Cc2ccc(Cl)cc2)no1 [3-(4-Chlorobenzyl)-N-isopropyl-1,2,4-oxadiazol-5-amine] | 100 |
| CC(C)Nc1nc(C2CCCCC2)no1 [3-Cyclohexyl-N-isopropyl-1,2,4-oxadiazol-5-amine] | 100 |
| Cc1ccc(-c2noc(NCCCN(C)C)n2)cc1 [N1,N1-Dimethyl-N3-(3-p-tolyl-1,2,4-oxadiazol-5-yl)propane-1,3-diamine] | 25 |
| COc1ccc(C(=N)NO)cc1 [N'-hydroxy-4-methoxybenzimidamide] | 55 |
| Cc1ccc(C(=N)NO)cc1 [N'-hydroxy-4-methylbenzimidamide] | 100 |
| O=[N+]([O-])c1ccc(Cc2noc(NC3CCCCC3)n2)cc1 [N-Cyclohexyl-3-(4-nitrobenzyl)-1,2,4-oxadiazol-5-amine] | 100 |
| Cc1ccc(-c2noc(NC3CCCCC3)n2)cc1 [N-Cyclohexyl-3-p-tolyl-1,2,4-oxadiazol-5-amine] | 92 |
